Assay results reported in patent publication US11274324B2, “Engineering polyketide synthase in cyanobacteria” (The Regents of the University of California, priority 2019, dated 2022).

Columns and labels:
[1] = test system: S. elongatus; settings: at low concentrations; previously reported; cited from earlier work
[2] = test system: S. elongatus AMC2302 wild type; assay: Cell toxicity analysis of precursors; type: cell-based, Synechococcus elongatus; settings: final concentration of 1 mM; preliminary analyses, FIG. 12A
Procedure: FIGS. 12A-12B show cell toxicity analysis to determine the optimal concentration of precursors. FIG. 12A is an image showing cell growth after addition of substrate. Methylmalonate (me-malonate) and propionate were added to S. elongatus AMC2302 wild type at different concentrations: 0, 1, 5, 10, 15, and 20 mM. Each column is a duplicate of the experiment. FIG. 12B is an image showing cell growth after addition of substrate. n-octanol was added to S. elongatus AMC2302 wild type at different concentrations: 0.125, 0.25, 0.5, 1, 2, and 0 mM. Each column is a duplicate (FIG. 12A), or triplicate of the experiment (FIG. 12B).
While module I was constitutively expressed from Peonn (Elledge and Davis et al. 1989; Taton et al. 2014), the expression and activation of module III depended on the expression of the T7 RNAP and Sfp placed in downstream PconII and under the translational control of theophylline inducible riboswitches. The biosynthesis of methylmalonyl-CoA required methylmalonate (module IA) or propionate (module IC) as substrates, and the transesterification of the ACP-bound MBFA required an alcohol substrate (n-octanol) to produce MBE as the final product. Cell toxicity analysis with methylmalonate, propionate and n-octanol were carried out to determine the optimal concentration of these precursors. (FIG. 12). […]

[3] = test system: theophylline dependent riboswitch B; assay: Inducible T7 expression system, PT7-YFP reporter fluorescence; type: cell-based, S. elongatus; settings: mutated PconII*
Procedure: (§1) FIGS. 2A-2B show characterization of inducible T7 expression systems in S. elongatus at different theophylline concentrations. The expression of the T7RNAP was driven by a mutated PconII* and was translationally controlled by riboswitch B (FIG. 2A) or riboswitch F (FIG. 2B). YFP fluorescence served as an easily readable output. Three independent strains were analyzed for each construct and error bars indicate standard deviations of the replicates.
(§2) To establish a functional and inducible T7RNAP based expression system for S. elongatus, devices were constructed where the transcription of the T7 RNA polymerase was driven by the conII promoter and its translation was controlled by either the theophylline dependent riboswitches B or F (Ma et al 2014). […] Thus, the potentiality of these regulatory devices when using a TRNAP expression system in S. elongatus was studied. Initially, the inventors constructed a reporter device in which the YFP reporter gene was driven by the PT7 and the T7RNAP expression was left under the control of a PconII-riboswitch (B or F). Both the T7RNAP expression systems and the reporter PT7-YFP were independently integrated at NS1 and NS2 of S. elongatus chromosome (Clerico et al 2007).

[4] = test system: theophylline dependent riboswitch F; assay: as above; type: cell-based, S. elongatus; settings: mutated PconII*
Procedure: as §1, §2

[5] = test system: S. elongatus recombinant strain MatB F pfm (module IIA); assay: Bioconversion assay, MBE production at different theophylline concentrations; type: cell-based, Synechococcus elongatus
Procedure: FIGS. 6A-6B show MBE biosynthesis by recombinant MatB F pfm and MatB B6 pfm cyanobacterial strains induced with different theophylline concentrations.
The two strains containing module IA (MatB) for methylmalonyl-CoA biosynthesis, modules IIA or IIB for T7 RNAP and Sfp expression, and module III for the Mas and accessory enzyme expression were analyzed. In addition, strains without the module III and a wild type strain were comprised as negative controls. For the bioconversion assays the strains were induced with theophylline 2 mM and 24 h later supplemented with 10 mM methylmalonate, 0.25 mM n-octanol and labeled with 2 μCi ^14C-acetate (58.9 mCi/mmol, PerkinElmer). After addition of the precursors the cultures were grown for 48 h, the in vivo synthesis of MBE was analyzed on total lipid extractions from each culture by TLC fractionation and autoradiography (FIGS. 3A-3B). Additional control bioconversion assays were carried out in the absence of either or both precursors, and labeled MBE synthesized by the E. coli strain RQ1 used as a standard (Menendez-Bravo et al. 2014). […]

Row | SMILES | toxicity for S. elongatus [1] | toxicity for S. elongatus [2] | concentration of theophylline needed to reach maximal fluorescence [3] [mM] | concentration of theophylline needed to reach maximal fluorescence [4] [mM] | effect on cell viability ([5]; 8 mM theophylline) | theophylline concentration reaching high levels of MBE production ([5]; module IIA, methylmalonate 10 mM, n-octanol 0.25 mM) [mM]
1 | CCC(=O)O [propionate] | toxic | not toxic |  |  |  | 
2 | Cn1c(=O)c2[nH]cnc2n(C)c1=O [theophylline] |  |  | 2 | 1 | detrimental to cell viability | 4
